We go through seven compounds from patent publication US20260308185A1, “STAT DEGRADERS AND USES THEREOF” (Recludix Pharma, Inc., priority 2023, published 2026).

Molecules are shown by their SMILES. pIC50: −log10 of the molar value. Where only a bound is given, the exact number is not on record here.

In experiment [1] the target is T1, Recombinant STAT3 protein (STAT3(G127-I722)) (Homo sapiens, UniProt P40763).
T1 construct: Recombinant STAT3 protein (STAT3(G127-I722))
Description: STAT3 Fluorescence Polarization (FP) Assay. It counts as binding. As to conditions: 25 nM STAT3(G127-I722), 2 nM 5-FAM-GpYLPQTV-NH2 probe, pH 7.4, 45-minute incubation at room temperature. The protocol:
An FP assay was developed to determine IC50 values for test substances. Recombinant STAT3 protein (STAT3(G127-I722)) at 25 nM was combined with a fluorescently labeled, phosphotyrosine peptide probe (5-FAM-GpYLPQTV-NH2) at 2 nM in FP buffer (10 mM HEPES pH 7.4, 50 mM NaCl. 1 mM EDTA, 0.05% Tween 20, 2 mM DTT). 50 μL of STAT3-probe mixture was added to serial diluted compounds in black, 96-well plates (Greiner BioOne 655076) to a final concentration of 1% DMSO. Reaction components were mixed, and FP was measured after 45-minute incubation at room temperature using a Tecan Spark multimode plate reader. FP signal (mP) was plotted against the log concentration of the test substances and IC50 values were calculated by nonlinear regression analysis using GraphPad Prism software. For STAT3 FP assay, A=≤100 nM; B=>100-1000 nM; C=>1-10 μM; and D=>10 μM.

Experiment [2] addresses T2, Recombinant STAT6 protein (STAT6(W123-T658)) (Homo sapiens, UniProt P42226).
T2 construct: Recombinant STAT6 protein (STAT6(W123-T658))
T2 sequence (P42226 123-658): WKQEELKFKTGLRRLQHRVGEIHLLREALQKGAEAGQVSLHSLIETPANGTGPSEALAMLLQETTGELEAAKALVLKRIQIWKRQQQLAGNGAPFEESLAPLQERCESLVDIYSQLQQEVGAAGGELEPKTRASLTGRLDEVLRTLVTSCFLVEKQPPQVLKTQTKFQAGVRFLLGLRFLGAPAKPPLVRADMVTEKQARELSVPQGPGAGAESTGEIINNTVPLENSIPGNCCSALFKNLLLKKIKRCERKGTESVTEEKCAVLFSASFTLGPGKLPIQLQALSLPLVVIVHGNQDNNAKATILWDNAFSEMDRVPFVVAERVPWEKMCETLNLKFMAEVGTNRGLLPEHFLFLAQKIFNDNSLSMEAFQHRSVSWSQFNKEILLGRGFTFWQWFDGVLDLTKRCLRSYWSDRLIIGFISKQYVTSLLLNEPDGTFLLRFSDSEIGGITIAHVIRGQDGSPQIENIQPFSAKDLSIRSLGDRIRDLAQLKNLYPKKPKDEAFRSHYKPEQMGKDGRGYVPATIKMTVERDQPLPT
Briefly: STAT6 Fluorescence Polarization (FP) Assay. To be noted: 250 nM STAT6(W123-T658), 2 nM 5-FAM-Ap[…]-NH2 probe, pH 7.4, 45-minute incubation at room temperature. Format: binding. Here is the method:
An FP assay was developed to determine IC50 values for test substances. Recombinant STAT6 protein (STAT6(W123-T658)) at 250 nM was combined with a fluorescently labeled, phosphotyrosine peptide probe (5-FAM-Ap[…]-NH2) at 2 nM in FP buffer (10 mM HEPES pH 7.4, 50 mM NaCl, 1 mM EDTA, 0.05% Tween 20, 2 mM DTT). 50 μL of STAT6-probe mixture was added to serial diluted compounds in black, 96-well plates (Greiner BioOne 655076) to a final concentration of 1% DMSO. Reaction components were mixed, and FP w as measured after 45-minute incubation at room temperature using a Tecan Spark multimode plate reader. FP signal (mP) was plotted against the log concentration of the test substances and IC50 values were calculated by nonlinear regression analysis using GraphPad Prism software. For STAT6 FP assay. A=≤300 nM; B=>300-3000 nM; C=>3-30 μM; and D=>30 μM.

In experiment [3] the test system is pSTAT3 (pY705-STAT3) in PBMC. Description: MSD-pSTAT-PBMC Assay (pSTAT3). Format: cell-based. To be noted: compound 3 hrs, then 10 ng/mL IL-6 for 10 min. From the text:
(§1) Cryopreserved Peripheral Blood Mononuclear Cells (PBMC) are from AllCells. Recombinant Human […] and IL-6 are from Peprotech. Mouse monoclonal anti-STAT3 antibody, rabbit monoclonal anti-pY705-STAT3 antibody, rabbit monoclonal Anti-pY641-STAT6 antibody, and lysis buffer are from Cell Signaling Technology (CST). Mouse monoclonal anti-STAT6 antibody is from BioLegend. Assay plates, blocker, and anti-rabbit secondary antibody are from Meso Scale Discovery (MSD).
(§2) Cryopreserved PBMCs were thawed out and allowed to recover overnight in IMDM+10% heat-inactivated FBS prior to plating 50,000 (STAT3) or 25,000 (STAT6) cells per well in 96-well U-bottom tissue culture plates. Cells were treated with compound for 3 hrs, then stimulated with 10 ng/mL IL-6 (STAT3) or 1 ng/mL IL-4 (STAT6) for 10 min. Cells were then spun down and washed with ice-cold PBS prior to lysing the cell pellet with 1× lysis buffer (CST) with 1× HALT protease and phosphatase inhibitor cocktail (Thermo). Lysates were transferred to and incubated overnight at 4° C. with shaking in QuickPlex 96-well high bind assay plates (MSD) pre-coated overnight with 30 μL per well of 0.6 μg/mL mouse monoclonal anti-STAT3 antibody (STAT3) or 2 μg/mL mouse monoclonal anti-STAT6 antibody (STAT6) in 1×PBS, and pre-blocked for 1 hour with 3% Blocker-A (MSD). Captured protein in the assay plates were then washed and probed with 25 μL per well of 0.25 μg/ml rabbit monoclonal anti-pY705-STAT3 antibody (STAT3) or 0.18 μg/ml rabbit monoclonal Anti-pY641-STAT6 antibody (STAT6) in 1% Blocker-A for 1 hour at room temperature with shaking, then washed and probed with 25 ul per well of 1 ug/ml Sulfo-TAG Labeled Goat Anti-Rabbit Antibody (MSD) in 1% Blocker-A for 1 hour at room temperature with shaking. Assay plates were then washed and 150 μL of 1× Read Buffer-T (MSD) was added to each well prior to reading on an SQ120 MSD Plate Reader. Assay signal from each sample was subtracted by the signal from unstimulated control wells and normalized to DMSO control wells, IC50 values were calculated using Graph Pad Prism Dose-Response Nonlinear Regression with variable slope. For both pSTAT3 and pSTAT6 A=≤100 nM; B=>100-1000 nM; C=>1000-3000 nM; and D=>3 μM.

The subject of experiment [4] is pSTAT6 (pY641-STAT6) in PBMC. Description: MSD-pSTAT-PBMC Assay (pSTAT6). It counts as cell-based. As to conditions: compound 3 hrs, then 1 ng/mL IL-4 for 10 min.
Description: as §1, §2

T1 sequence (P40763 127-722): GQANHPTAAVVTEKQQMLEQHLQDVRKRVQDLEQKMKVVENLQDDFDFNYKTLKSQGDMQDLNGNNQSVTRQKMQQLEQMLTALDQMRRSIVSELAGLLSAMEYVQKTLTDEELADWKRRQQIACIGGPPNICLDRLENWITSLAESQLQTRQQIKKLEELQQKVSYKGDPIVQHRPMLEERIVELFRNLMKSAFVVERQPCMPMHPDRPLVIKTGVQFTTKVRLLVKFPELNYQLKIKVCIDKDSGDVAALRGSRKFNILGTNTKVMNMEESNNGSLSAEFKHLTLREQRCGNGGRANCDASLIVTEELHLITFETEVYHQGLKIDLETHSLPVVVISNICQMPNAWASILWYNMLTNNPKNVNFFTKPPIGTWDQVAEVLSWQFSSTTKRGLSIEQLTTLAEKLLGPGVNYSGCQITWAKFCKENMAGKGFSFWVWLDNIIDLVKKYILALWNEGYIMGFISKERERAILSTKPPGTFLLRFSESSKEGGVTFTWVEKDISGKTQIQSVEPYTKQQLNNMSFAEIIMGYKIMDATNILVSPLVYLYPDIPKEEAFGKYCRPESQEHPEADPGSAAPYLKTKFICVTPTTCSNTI

In the case of `O=C1CCC(N2Cc3c(C#CCCCCCC(=O)NC4(c5ccccn5)CN(C(=O)[C@@H]5CC[C@@H]6C[C@H]7C[C@H]7C[C@H](NC(=O)c7cc8cc(C(F)(F)P(=O)(O)O)ccc8s7)C(=O)N65)C4)cccc3C2=O)C(=O)N1` (stereo partly drawn) [Compound 1, ((2-(((3S,6S,7aS,8aR,9aR)-3-(3-(8-(2-(2,6-dioxopiperidin-3-yl)-1-oxoisoindolin-4-yl)oct-7-ynamido)-3-(pyridin-2-yl)azetidine-1-carbonyl)-5-oxodecahydro-1H-cyclopropa[d]pyrrolo[1,2-a]azocin-6-yl)carbamoyl)benzo[b]thiophen-5-yl)difluoromethyl)phosphonic acid], the pIC50 in experiment [1] was above 7.00; in experiment [2], 4.52 to 5.52; in experiment [3] it was below 5.52.

Consider `CCCC(=O)SCCOP(=O)(OCCSC(=O)CCC)C(F)(F)c1ccc2sc(C(=O)NC3CC4CC4CC4CCC(C(=O)N5CC(NC(=O)CCCCCC#Cc6cccc7c6CN(C6CCC(=O)NC6=O)C7=O)(c6ccccn6)C5)N4C3=O)cc2c1` [Compound 2, S,S′-(((((2-(((3S,6S,7aS,8aR,9aR)-3-(3-(8-(2-(2,6-dioxopiperidin-3-yl)-1-oxoisoindolin-4-yl)oct-7-ynamido)-3-(pyridin-2-yl)azetidine-1-carbonyl)-5-oxodecahydro-1H-cyclopropa[d]pyrrolo[1,2-a]azocin-6-yl)carbamoyl)benzo[b]thiophen-5-yl)difluoromethyl)phosphoryl)bis(oxy))bis(ethane-2,1-diyl)) dibutanethioate], for which the values for the pIC50 in experiment [3] and in experiment [4] were above 7.00 and below 5.52, respectively.

As to `CN(CCOc1ccc(C2CCC(=O)NC2=O)cc1)c1ccncc1C1CN(C(=O)[C@@H]2CC[C@@H]3C[C@H]4C[C@H]4C[C@H](NC(=O)c4cc5cc(C(F)(F)P(=O)(O)O)ccc5s4)C(=O)N32)C1` (stereo partly drawn) [Compound 11, ((2-(((3S,6S,7aS,8aR,9aR)-3-(3-(4-((2-(4-(2,6-dioxopiperidin-3-yl)phenoxy)ethyl)(methyl)amino)pyridin-3-yl)azetidine-1-carbonyl)-5-oxodecahydro-1H-cyclopropa[d]pyrrolo[1,2-a]azocin-6-yl)carbamoyl)benzo[b]thiophen-5-yl)difluoromethyl)phosphonic acid], the pIC50 in experiment [1] was above 7.00; in experiment [2], 4.52 to 5.52; in experiment [3], below 5.52.

`CCCC(=O)SCCOP(=O)(OCCSC(=O)CCC)C(F)(F)c1ccc2sc(C(=O)NC3CC4CC4CC4CCC(C(=O)N5CC(c6cnccc6N(C)CCOc6ccc(C7CCC(=O)NC7=O)cc6)C5)N4C3=O)cc2c1` [Compound 12, S,S′-(((((2-(((3S,6S,7aS,8aR,9aR)-3-(3-(4-((2-(4-(2,6-dioxopiperidin-3-yl)phenoxy)ethyl)(methyl)amino)pyridin-3-yl)azetidine-1-carbonyl)-5-oxodecahydro-1H-cyclopropa[d]pyrrolo[1,2-a]azocin-6-yl)carbamoyl)benzo[b]thiophen-5-yl)difluoromethyl)phosphoryl)bis(oxy))bis(ethane-2,1-diyl)) dibutanethioate] showed a pIC50 in experiment [3] above 7.00.

In the case of `O=C1CCC(n2c(=O)[nH]c3cc(N4CCC(n5ccc([C@@H]6CN(C(=O)[C@@H]7CC[C@@H]8C[C@H]9C[C@H]9C[C@H](NC(=O)c9cc%10cc(C(F)(F)P(=O)(O)O)ccc%10s9)C(=O)N87)C7(CC7)C6)cc5=O)CC4)ccc32)C(=O)N1` (stereo partly drawn) [Compound 19, ((2-(((3S,6S,7aS,8aR,9aR)-3-((6R)-6-(1-(1-(1-(2,6-dioxopiperidin-3-yl)-2-oxo-2,3-dihydro-1H-benzo[d]imidazol-5-yl)piperidin-4-yl)-2-oxo-1,2-dihydropyridin-4-yl)-4-azaspiro[2.4]heptane-4-carbonyl)-5-oxodecahydro-1H-cyclopropa[d]pyrrolo[1,2-a]azocin-6-yl)carbamoyl)benzo[b]thiophen-5-yl)difluoromethyl)phosphonic acid], the pIC50 was 6.00 to 7.00 in experiment [1], 5.52 to 6.52 in experiment [2] and below 5.52 in experiment [4].

`O=C1CCC(c2ccc(OCC(=O)N3CCN(c4ccncc4C4CN(C(=O)[C@@H]5CC[C@@H]6C[C@H]7C[C@H]7C[C@H](NC(=O)c7cc8cc(C(F)(F)P(=O)(O)O)ccc8s7)C(=O)N65)C4)CC3)cc2)C(=O)N1` (stereo partly drawn) [Compound 21, ((2-(((3S,6S,7aS,8aR,9aR)-3-(3-(4-(4-(2-(4-(2,6-dioxopiperidin-3-yl)phenoxy)acetyl)piperazin-1-yl)pyridin-3-yl)azetidine-1-carbonyl)-5-oxodecahydro-1H-cyclopropa[d]pyrrolo[1,2-a]azocin-6-yl)carbamoyl)benzo[b]thiophen-5-yl)difluoromethyl)phosphonic acid]: the pIC50 is above 7.00 in experiment [1], 4.52 to 5.52 in experiment [2] and below 5.52 in experiment [3].

With `CCCC(=O)SCCOP(=O)(OCCSC(=O)CCC)C(F)(F)c1ccc2sc(C(=O)N[C@H]3C[C@@H]4C[C@@H]4C[C@H]4CCC(C(=O)N5CC(c6cnccc6N6CCN(C(=O)COc7ccc(C8CCC(=O)NC8=O)cc7)CC6)C5)N4C3=O)cc2c1` (stereo partly drawn) [Compound 22, S,S′-(((((2-(((3S,6S,7aS,8aR,9aR)-3-(3-(4-(4-(2-(4-(2,6-dioxopiperidin-3-yl)phenoxy)acetyl)piperazin-1-yl)pyridin-3-yl)azetidine-1-carbonyl)-5-oxodecahydro-1H-cyclopropa[d]pyrrolo[1,2-a]azocin-6-yl)carbamoyl)benzo[b]thiophen-5-yl)difluoromethyl)phosphoryl)bis(oxy))bis(ethane-2,1-diyl)) dibutanethioate], the pIC50 in experiment [3] is above 7.00.

As usually defined, the pIC50 is the IC50 on a negative log10 scale, so that one unit is a factor of ten.
